Our source for the IC50 values is BindingDB's records for PubMed 32066009 (Hefei University of Technology, 2020).

Molecules are shown by their SMILES.

In one experiment the target is Prothrombin (Homo sapiens, UniProt P00734). The experiment is described as follows: Inhibition of thrombin (unknown origin).
Another experiment addresses Coagulation factor X (Homo sapiens, UniProt P00742). The experiment is described as follows: Inhibition of human fXA by fluorescence based analysis.
In the next experiment the target is T1, Coagulation factor XII (Homo sapiens, UniProt P00748).
T1 sequence (P00748 whole entry): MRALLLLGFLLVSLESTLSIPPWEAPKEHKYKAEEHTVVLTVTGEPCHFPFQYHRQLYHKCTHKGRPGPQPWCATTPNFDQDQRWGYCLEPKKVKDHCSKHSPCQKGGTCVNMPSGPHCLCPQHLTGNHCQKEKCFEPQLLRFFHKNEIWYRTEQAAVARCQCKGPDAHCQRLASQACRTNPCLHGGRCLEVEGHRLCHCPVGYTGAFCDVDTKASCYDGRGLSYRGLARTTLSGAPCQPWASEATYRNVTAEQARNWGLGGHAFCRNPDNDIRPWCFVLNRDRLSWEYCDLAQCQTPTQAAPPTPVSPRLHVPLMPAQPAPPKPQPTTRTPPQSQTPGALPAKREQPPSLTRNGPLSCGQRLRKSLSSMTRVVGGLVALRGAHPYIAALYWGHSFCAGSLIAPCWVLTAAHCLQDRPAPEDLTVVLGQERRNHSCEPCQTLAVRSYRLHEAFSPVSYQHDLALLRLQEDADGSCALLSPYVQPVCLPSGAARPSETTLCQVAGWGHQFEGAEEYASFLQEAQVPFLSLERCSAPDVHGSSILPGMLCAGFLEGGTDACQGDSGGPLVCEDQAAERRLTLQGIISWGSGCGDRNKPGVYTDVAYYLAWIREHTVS
The experiment can be described thus: Inhibition of human fXIIA by fluorescence based analysis.

Sequence of Coagulation factor X (P00742 41-179 limits assumed): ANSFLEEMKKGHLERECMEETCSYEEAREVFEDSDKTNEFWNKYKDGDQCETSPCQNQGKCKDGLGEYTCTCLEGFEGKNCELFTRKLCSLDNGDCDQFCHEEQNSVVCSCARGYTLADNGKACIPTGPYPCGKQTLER
Sequence of Coagulation factor X (P00742 235-488 limits assumed): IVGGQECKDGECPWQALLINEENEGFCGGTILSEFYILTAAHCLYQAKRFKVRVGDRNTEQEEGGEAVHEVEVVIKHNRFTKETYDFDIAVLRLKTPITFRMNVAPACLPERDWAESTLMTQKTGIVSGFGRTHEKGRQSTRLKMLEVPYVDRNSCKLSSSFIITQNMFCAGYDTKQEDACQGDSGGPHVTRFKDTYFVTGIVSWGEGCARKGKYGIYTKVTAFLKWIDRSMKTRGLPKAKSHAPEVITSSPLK

One may read the IC50 as the concentration needed to halve the response being measured. The compound `CC(=O)c1ccc(NC(=O)[C@H](Cc2ccccc2)NC(=O)C2CCC(CN)CC2)cc1` (some centres undefined) yielded an IC50 against Prothrombin of over 1000 µM.

With `CCOc1ccc(C[C@@H](NC(=O)c2ccccc2)C(=O)N[C@@H](Cc2ccccc2)C(=O)NCc2ccc(CN)cc2)cc1` [US9234000, 3], the IC50 at Coagulation factor X and against Coagulation factor XII was over 10 µM throughout.

For `NCC1CCC(C(=O)N[C@@H](Cc2ccccc2)C(=O)Nc2ccc(CC(=O)O)cc2)CC1` (some centres undefined), the IC50 against Prothrombin was over 1000 µM.
